Test results published in the supplement of paper PMC10307832.

What was measured:
Assay in all cases: relative viability (nuclei count vs DMSO), 5 days (fraction); higher = more cells survive
BMX-IN-1 + Dasatinib = compound: C=CC(=O)Nc1cc(-n2c(=O)ccc3cnc4ccc(-c5ccc(NS(C)(=O)=O)cc5)cc4c32)ccc1C [BMX-IN-1] + Cc1nc(Nc2ncc(C(=O)Nc3c(C)cccc3Cl)s2)cc(N2CCN(CCO)CC2)n1 [Dasatinib] (partner 0.075 µM)
Method in brief: (§1)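 Relative viability is defined as nuclei in treated wells over nuclei in vehicle wells. Duplicate plates were run and medians reported. Lung cancer cell lines in 1536-well plates were dosed by pin tool one day after seeding, with one drug or with a fixed anchor-drug dose plus five library-drug doses (not always all listed) in √10 steps, and nuclei were counted after 5 days.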

BMX-IN-1 + Phenformin = compound: C=CC(=O)Nc1cc(-n2c(=O)ccc3cnc4ccc(-c5ccc(NS(C)(=O)=O)cc5)cc4c32)ccc1C [BMX-IN-1] + N=C(N)NC(=N)NCCc1ccccc1 [Phenformin] (partner 250 µM)
Method in brief: as §1

BMX-IN-1 + Decitabine = compound: C=CC(=O)Nc1cc(-n2c(=O)ccc3cnc4ccc(-c5ccc(NS(C)(=O)=O)cc5)cc4c32)ccc1C [BMX-IN-1] + Nc1ncn([C@H]2C[C@H](O)[C@@H](CO)O2)c(=O)n1 [Decitabine] (partner 2 µM)
Method in brief: as §1

PAC-1 + Bortezomib = compound: C=CCc1cccc(/C=N/NC(=O)CN2CCN(Cc3ccccc3)CC2)c1O [PAC-1] + CC(C)C[C@H](NC(=O)[C@H](Cc1ccccc1)NC(=O)c1cnccn1)B(O)O [Bortezomib] (partner 0.002 µM)
Method in brief: as §1

PAC-1 + Decitabine = compound: C=CCc1cccc(/C=N/NC(=O)CN2CCN(Cc3ccccc3)CC2)c1O [PAC-1] + Nc1ncn([C@H]2C[C@H](O)[C@@H](CO)O2)c(=O)n1 [Decitabine] (partner 2 µM)
Method in brief: as §1

Cell Line | relative viability (BMX-IN-1 + Dasatinib; first compound 0.02 µM) | relative viability (BMX-IN-1 + Dasatinib; first compound 0.2 µM) | relative viability (BMX-IN-1 + Dasatinib; first compound 0.6325 µM) | relative viability (BMX-IN-1 + Dasatinib; first compound 2 µM) | relative viability (BMX-IN-1 + Phenformin; first compound 0.02 µM) | relative viability (BMX-IN-1 + Phenformin; first compound 0.2 µM) | relative viability (BMX-IN-1 + Phenformin; first compound 0.6325 µM) | relative viability (BMX-IN-1 + Phenformin; first compound 2 µM) | relative viability (BMX-IN-1 + Decitabine; first compound 0.02 µM) | relative viability (BMX-IN-1 + Decitabine; first compound 0.2 µM) | relative viability (BMX-IN-1 + Decitabine; first compound 0.6325 µM) | relative viability (BMX-IN-1 + Decitabine; first compound 2 µM) | relative viability (PAC-1 + Bortezomib; first compound 0.02 µM) | relative viability (PAC-1 + Bortezomib; first compound 0.06325 µM) | relative viability (PAC-1 + Bortezomib; first compound 0.2 µM) | relative viability (PAC-1 + Bortezomib; first compound 2 µM) | relative viability (PAC-1 + Decitabine; first compound 0.02 µM) | relative viability (PAC-1 + Decitabine; first compound 0.06325 µM) | relative viability (PAC-1 + Decitabine; first compound 0.2 µM) | relative viability (PAC-1 + Decitabine; first compound 2 µM)
NCI-H2009 | 0.303 | 0.294 | 0.278 | 0.271 | 0.47 | 0.549 | 0.531 | 0.485 | 0.381 | 0.402 | 0.41 | 0.368 | 1.01 | 0.994 | 0.897 | 0.956 | 0.377 | 0.339 | 0.316 | 0.354
NCI-H2023 | 0.767 | 0.637 | 0.667 | 0.682 | 0.466 | 0.522 | 0.418 | 0.413 | 0.236 | 0.247 | 0.223 | 0.295 | 1.2 | 1.04 | 0.87 | 1.02 | 0.216 | 0.217 | 0.182 | 0.182
NCI-H2085 | 0.246 | 0.223 | 0.236 | 0.227 | 0.664 | 0.68 | 0.81 | 0.707 | 0.553 | 0.595 | 0.564 | 0.597 | 1.09 | 1.1 | 1.14 | 1.12 | 0.554 | 0.504 | 0.572 | 0.492
NCI-H2087 | 1.25 | 0.931 | 1.03 | 0.926 | 0.462 | 0.572 | 0.508 | 0.443 | 0.29 | 0.343 | 0.239 | 0.325 | 0.739 | 0.838 | 0.702 | 0.95 | 0.303 | 0.305 | 0.233 | 0.28
NCI-H2126 | 0.624 | 0.645 | 0.616 | 0.601 | 0.517 | 0.559 | 0.581 | 0.526 | 0.522 | 0.515 | 0.59 | 0.601 | 1.08 | 1.08 | 1.21 | 1.18 | 0.589 | 0.584 | 0.541 | 0.612
NCI-H2347 | 0.344 | 0.281 | 0.287 | 0.323 | 0.314 | 0.368 | 0.38 | 0.357 | 0.647 | 0.678 | 0.608 | 0.75 | 1.07 | 0.912 | 1.08 | 0.875 | 0.637 | 0.598 | 0.606 | 0.621
NCI-H2405 | 0.225 | 0.501 | 0.223 | 0.19 | 0.389 | 0.568 | 0.391 | 0.429 | 0.702 | 0.723 | 0.851 | 0.716 | 0.981 | 1.02 | 0.959 | 0.977 | 0.759 | 0.821 | 0.707 | 0.765
NCI-H3122 | 1.03 | 0.936 | 0.837 | 0.84 | 0.377 | 0.633 | 0.41 | 0.38 | 0.421 | 0.33 | 0.548 | 0.514 | 1.03 | 1.05 | 1 | 0.977 | 0.489 | 0.455 | 0.362 | 0.446
PC-3 [JPC-3] | 1 | 1.19 | 1.07 | 0.943 | 0.459 | 0.488 | 0.483 | 0.491 | 0.84 | 0.754 | 0.816 | 0.885 | 0.83 | 0.789 | 0.774 | 0.877 | 0.938 | 0.861 | 0.698 | 0.77
PC-14 | 0.313 | 0.227 | 0.339 | 0.279 | 0.575 | 0.535 | 0.809 | 0.583 | 0.18 | 0.227 | 0.292 | 0.305 | 0.937 | 0.953 | 0.754 | 0.927 | 0.214 | 0.235 | 0.172 | 0.221
RERF-LC-KJ | 1.08 | 0.883 | 0.82 | 0.939 | 0.439 | 0.408 | 0.42 | 0.416 | 0.788 | 0.692 | 0.851 | 0.758 | 1.15 | 1.16 | 1.08 | 1.17 | 0.66 | 0.65 | 0.66 | 0.661
SK-LU-1 | 0.22 | 0.174 | 0.169 | 0.171 | 0.513 | 0.636 | 0.626 | 0.524 | 0.789 | 0.679 | 0.834 | 0.679 | 0.8 | 1.3 | 1.21 | 1.22 | 0.651 | 0.627 | 0.293 | 0.654
SW 1573 | 0.531 | 0.63 | 0.456 | 0.528 | 0.383 | 0.446 | 0.342 | 0.351 | 0.575 | 0.532 | 0.46 | 0.459 | 0.947 | 1.08 | 1.01 | 1.13 | 0.532 | 0.551 | 0.432 | 0.564
UMC-11 | 0.542 | 0.591 | 0.549 | 0.475 | 0.294 | 0.316 | 0.356 | 0.367 | 0.604 | 0.526 | 0.66 | 0.664 | 0.693 | 0.55 | 0.605 | 0.782 | 0.668 | 0.681 | 0.265 | 0.68
